Read-outs that look alike come from different tables or passages of the source. Where a SMILES comes first, the peptide text is derived from it. Bridges are numbered along the chain shown (N, C = ends). [ ]: non-standard residue; d: D form. The star is where a group is joined. d(aIle) = CC[C@H](C)[C@@H](N)C(=O)O; d(aThr) = C[C@@H](O)[C@@H](N)C(=O)O; Myristoyl = CCCCCCCCCCCCCC(=O)*; Orn = NCCC[C@H](N)C(=O)O; Dhb = C/C=C(\N)C(=O)O
Experiments:
Type in all cases: cell-based, human
A-549 = test: SRB colorimetric assay of cell growth and viability, A-549; settings: 48 hours exposure; for GI50: read-out: GI50 A-549; for CC50: read-out: LC50 A-549
SK-MEL-28 = test: SRB colorimetric assay of cell growth and viability, SK-MEL-28; settings: 48 hours exposure; for CC50: read-out: LC50 MEL-28
HT-29 = test: SRB colorimetric assay of cell growth and viability, HT-29; settings: 48 hours exposure; for GI50: read-out: GI50 HT-29; for CC50: read-out: LC50 HT-29
LoVo = test: SRB colorimetric assay of cell growth and viability, LoVo; settings: 48 hours exposure; for CC50: read-out: LC50 LOVO
LoVo-Dox = test: SRB colorimetric assay of cell growth and viability, LoVo-Dox; settings: 48 hours exposure; for CC50: read-out: LC50 LOVO-DOX
In short: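 After 48 hours continuous exposure to samples spanning 10 to 10^−8 μg/mL, biomass was quantified by sulforhodamine B staining of TCA-fixed cells (OD 490 nm). Cells, 5×10^3 per well in RPMI 1640 10% FBS, had attached 18 hours first; GI, TGI and LC derived from triplicate wells.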

DU-145 = test: SRB colorimetric assay of cell growth and viability, DU-145; settings: 48 hours exposure
LNCaP = test: SRB colorimetric assay of cell growth and viability, LNCaP; settings: 48 hours exposure; for GI50: read-out: GI50 LN-caP; for CC50: read-out: LC50 LN-caP
IGROV-1 = test: SRB colorimetric assay of cell growth and viability, IGROV-1; settings: 48 hours exposure
IGROV-ET = test: SRB colorimetric assay of cell growth and viability, IGROV-ET; settings: 48 hours exposure; for CC50: read-out: LC50 IGROV-ET
SK-OV-3 = test: SRB colorimetric assay of cell growth and viability, SK-OV-3; settings: 48 hours exposure; for GI50: read-out: GI50 SKOV-3; for CC50: read-out: LC50 SKOV-3
From the text: The finality of this assay is to interrupt the growth of a “in vitro” tumor cell culture by means a continued exhibition of the cells to the sample to be testing.
A colorimetric type of assay, using sulforhodamine B (SRB) reaction has been adapted for a quantitative measurement of cell growth and viability [following the technique described by Philip Skehan, et al. (1990), New colorimetric cytotoxicity assay for anticancer drug screening, J. Natl. Cancer Inst., 82:1107-1112].
This form of the assay employs 96 well cell culture microplates of 9 mm diameter (Faircloth, 1988; Mosmann, 1983). Most of the cell lines are obtained from American Type Culture Collection (ATCC) derived from different human cancer types.
Cells are maintained in RPMI 1640 10% FBS, supplemented with 0.1 g/l penicillin and 0.1 g/l streptomycin sulfate and then incubated at 37° C., 5% CO2 and 98% humidity. For the experiments, cells were harvested from subconfluent cultures using trypsin and resuspended in fresh medium before plating.
Cells are seeded in 96 well microtiter plates, at 5×10^3 cells per well in aliquots of 195 μL medium, and they are allowed to attach to the plate surface by growing in drug free medium for 18 hours. Afterward, samples are added in aliquots of 5 μL in a ranging from 10 to 10^−8 μg/mL, dissolved in DMSO:EtOH:PBS (0.5:0.5:99). After 48 hours exposure, the antitumor effect are measured by the SRB methodology: cells are fixed by adding 50 μL of cold 50% (wt/vol) trichloroacetic acid (TCA) and incubating for 60 minutes at 4° C. Plates are washed with deionized water and dried. One hundred μL of SRB solution (0.4% wt/vol in 1% acetic acid) is added to each microtiter well and incubated for 10 minutes at room temperature. Unbound SRB is removed by washing with 1% acetic acid. Plates are air dried and bound stain is solubilized with Tris buffer. Optical densities are read on a automated spectrophotometric plate reader at a single wavelength of 490 nm.
The values for mean+/− SD of data from triplicate wells are calculated. Some parameters for cellular responses can be calculated: GI=growth inhibition, TGI=total growth inhibition (cytostatic effect) and LC=cell killing (cytotoxic effect).

K-562 = test: SRB colorimetric assay of cell growth and viability, K-562; settings: 48 hours exposure; for CC50: read-out: LC50 K-562
PANC-1 = test: SRB colorimetric assay of cell growth and viability, PANC-1; settings: 48 hours exposure; for CC50: read-out: LC50 PANC-1
SK-BR-3 = test: SRB colorimetric assay of cell growth and viability, SK-BR-3; settings: 48 hours exposure, SRB
HeLa = test: SRB colorimetric assay of cell growth and viability, HeLa; settings: 48 hours exposure, SRB
HeLa-APL = test: SRB colorimetric assay of cell growth and viability, HeLa-APL; settings: 48 hours exposure, SRB

C/C=C1\NC(=O)[C@H](Cc2ccccc2)NC(=O)[C@@H](C(C)C)NC(=O)[C@@H]([C@@H](C)CC)NC(=O)[C@H](NC(=O)[C@H](NC(=O)[C@H](CCCN)NC(=O)[C@H]2CCCN2C(=O)[C@H](NC(=O)[C@@H](NC(=O)[C@@H](NC(=O)[C@H](NC(=O)Cc2ccc(C(F)(F)F)cc2)C(C)C)[C@@H](C)O)C(C)C)C(C)C)[C@@H](C)CC)[C@@H](C)OC(=O)[C@H](C(C)C)NC1=O [Compound 25, [p-CF3PhAc^14]-KF]
TGI A-549 (A-549): 9.67E−07 Molar
GI50 (A-549): 297 nM
CC50 (A-549): 3240 nM
GI50 (SK-MEL-28): 1400 nM
TGI MEL-28 (SK-MEL-28): 2.14E−05 Molar
CC50 (SK-MEL-28): 4060 nM
TGI HT-29 (HT-29): 1.41E−06 Molar
GI50 (HT-29): 555 nM
CC50 (HT-29): 3320 nM
GI50 (LoVo): 203 nM
TGI LOVO (LoVo): 4.59E−07 Molar
CC50 (LoVo): 1610 nM
GI50 (LoVo-Dox): 176 nM
TGI LOVO-DOX (LoVo-Dox): 3.92E−07 Molar
CC50 (LoVo-Dox): 1430 nM
GI50 (DU-145): 251 nM
LC50 (concentration causing 50% net cell kill) (DU-145): 2380 nM
TGI DU-145 (DU-145): 7.86E−07 Molar
TGI LN-caP (LNCaP): 1.19E−06 Molar
GI50 (LNCaP): 320 nM
CC50 (LNCaP): 3660 nM
GI50 (IGROV-1): 252 nM
LC50 (concentration causing 50% net cell killing) (IGROV-1): 1960 nM
TGI IGROV (IGROV-1): 4.54E−07 Molar
GI50 (IGROV-ET): 200 nM
TGI IGROV-ET (IGROV-ET): 3.23E−07 Molar
CC50 (IGROV-ET): 521 nM
TGI SKOV-3 (SK-OV-3): 3.29E−07 Molar
GI50 (SK-OV-3): 126 nM
CC50 (SK-OV-3): 1130 nM
GI50 (K-562): 1420 nM
TGI K-562 (K-562): 3.06E−06 Molar
CC50 (K-562): 6440 nM
GI50 (PANC-1): 1580 nM
TGI PANC-1 (PANC-1): 3.07E−06 Molar
CC50 (PANC-1): 5960 nM

C/C=C1\NC(=O)[C@H](Cc2ccccc2)NC(=O)[C@@H](C(C)C)NC(=O)[C@@H]([C@@H](C)CC)NC(=O)[C@H](NC(=O)[C@H](NC(=O)[C@H](CCCN)NC(=O)[C@H]2CCCN2C(=O)[C@H](NC(=O)CCCCCCCCCCCCC)C(C)C)[C@@H](C)CC)[C@@H](C)OC(=O)[C@H](C(C)C)NC1=O [Compound 32, [noVal^11, noThr^12, noD-Val^13, Mst^14]-KF] (Myristoyl-[dV][dP][Orn][d(aIle)][d(aThr)][d(aIle)][dV]F[Dhb]V; ester 5-C)
TGI A-549 (A-549): 7.83E−06 Molar
GI50 (A-549): 5190 nM
CC50 (A-549): 7830 nM
GI50 (SK-MEL-28): 2080 nM
TGI MEL-28 (SK-MEL-28): 3.63E−06 Molar
CC50 (SK-MEL-28): 6340 nM
TGI HT-29 (HT-29): 7.83E−06 Molar
GI50 (HT-29): 7660 nM
CC50 (HT-29): 7830 nM
GI50 (LoVo): 7830 nM
TGI LOVO (LoVo): 7.83E−06 Molar
CC50 (LoVo): 7830 nM
GI50 (LoVo-Dox): 2150 nM
TGI LOVO-DOX (LoVo-Dox): 3.66E−06 Molar
CC50 (LoVo-Dox): 6210 nM
GI50 (DU-145): 2120 nM
LC50 (concentration causing 50% net cell kill) (DU-145): 6810 nM
TGI DU-145 (DU-145): 3.80E−06 Molar
TGI LN-caP (LNCaP): 3.08E−06 Molar
GI50 (LNCaP): 1420 nM
CC50 (LNCaP): 6670 nM
GI50 (IGROV-1): 2290 nM
LC50 (concentration causing 50% net cell killing) (IGROV-1): 5510 nM
TGI IGROV (IGROV-1): 3.56E−06 Molar
GI50 (IGROV-ET): 2060 nM
TGI IGROV-ET (IGROV-ET): 3.26E−06 Molar
CC50 (IGROV-ET): 5160 nM
TGI SKOV-3 (SK-OV-3): 6.27E−06 Molar
GI50 (SK-OV-3): 2340 nM
CC50 (SK-OV-3): 7830 nM
GI50 (K-562): 1910 nM
TGI K-562 (K-562): 4.21E−06 Molar
CC50 (K-562): 7830 nM
GI50 (PANC-1): 1780 nM
TGI PANC-1 (PANC-1): 3.12E−06 Molar
CC50 (PANC-1): 5490 nM

C/C=C1\NC(=O)[C@H](Cc2ccccc2)NC(=O)[C@@H](C(C)C)NC(=O)[C@@H]([C@@H](C)CC)NC(=O)[C@H](NC(=O)[C@H](NC(=O)[C@H](CCCN)NC(=O)[C@H]2CCCN2C(=O)[C@H](NC(=O)[C@@H](NC(=O)[C@@H](NC(=O)[C@H](NC(=O)CC[C@@H](C)CC)C(C)C)[C@@H](C)OC(=O)C(F)(F)F)C(C)C)C(C)C)[C@@H](C)CC)[C@@H](C)OC(=O)[C@H](C(C)C)NC1=O [Compound 94, [Thr(OTfa)^12, 4(S)MeHex^14]-Kahalalide F]
TGI A-549 (A-549; SRB): 2.28E−06 Molar
GI50 (A-549; SRB): 1120 nM
CC50 (A-549; SRB): 4660 nM
GI50 (SK-MEL-28; SRB): 743 nM
TGI MEL-28 (SK-MEL-28; SRB): 1.50E−06 Molar
CC50 (SK-MEL-28; SRB): 3010 nM
TGI HT-29 (HT-29; SRB): 3.43E−07 Molar
GI50 (HT-29; SRB): 163 nM
CC50 (HT-29; SRB): 1140 nM
GI50 (LoVo; SRB): 168 nM
TGI LOVO (LoVo; SRB): 3.26E−07 Molar
CC50 (LoVo; SRB): 632 nM
GI50 (LoVo-Dox; SRB): 162 nM
TGI LOVO-DOX (LoVo-Dox; SRB): 3.55E−07 Molar
CC50 (LoVo-Dox; SRB): 1320 nM
GI50 (DU-145; SRB): 718 nM
LC50 (concentration causing 50% net cell kill) (DU-145; SRB): 3180 nM
TGI DU-145 (DU-145; SRB): 1.51E−06 Molar
TGI LN-caP (LNCaP; SRB): 4.92E−06 Molar
GI50 (LNCaP; SRB): 1650 nM
CC50 (LNCaP; SRB): 6350 nM
GI50 (SK-BR-3): 226 nM
LC50 (SK-BR-3): 625 nM
TGI SK-BR-3 (SK-BR-3): 3.75E−07 Molar
GI50 (IGROV-1; SRB): 313 nM
LC50 (concentration causing 50% net cell killing) (IGROV-1; SRB): 3050 nM
TGI IGROV (IGROV-1; SRB): 6.11E−07 Molar
GI50 (IGROV-ET; SRB): 208 nM
TGI IGROV-ET (IGROV-ET; SRB): 4.00E−07 Molar
CC50 (IGROV-ET; SRB): 1580 nM
GI50 (HeLa): 413 nM
TGI HELA (HeLa): 1.16E−06 Molar
CC50 (HeLa; read-out: LC50 HELA): 3020 nM
GI50 (HeLa-APL): 693 nM
TGI HELA-APL (HeLa-APL): 1.65E−06 Molar
CC50 (HeLa-APL; read-out: LC50 HELA-APL): 3920 nM
GI50 (K-562; SRB): 1840 nM
TGI K-562 (K-562; SRB): 3.75E−06 Molar
CC50 (K-562; SRB): 6350 nM
GI50 (PANC-1; SRB): 2860 nM
TGI PANC-1 (PANC-1; SRB): 6.35E−06 Molar
CC50 (PANC-1; SRB): 6350 nM

Reference: patent publication US20070117743A1, “New antitumoral compounds” (priority 2003, published 2007)
